Laboratory results as given in PubChem BioAssay AID256 (DTP/NCI, 2004).
“And” between values parts separate entries of the source, which are not always exact repeats. Equal entries are not always repeated. Toxic doses and inconclusive results are not listed.

System: CD2F1 mice, L1210 leukemia ip, survival T/C
Assay: NCI In Vivo Anticancer Drug Screen. Data for tumor model L1210 Leukemia (intraperitoneal) in CD2F1 (CDF1) mice
Conditions: higher = longer survival
How it was run: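 Each value reflects a quotient of treated over vehicle control outcomes in mice with a transplanted tumor.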

[1] = endpoint: mean survival time, dose: 100.0 mg/kg/injection, schedule: Q01DX009 (ip), vehicle: saline with Tween-80
[2] = endpoint: mean survival time, dose: 100.0 mg/kg/injection, schedule: Q04DX003 (ip), vehicle: saline with Tween-80
[3] = endpoint: mean survival time, dose: 200.0 mg/kg/injection, schedule: Q01DX009 (ip), vehicle: saline with Tween-80
[4] = endpoint: mean survival time, dose: 200.0 mg/kg/injection, schedule: Q04DX003 (ip), vehicle: saline with Tween-80
[5] = endpoint: mean survival time, dose: 400.0 mg/kg/injection, schedule: Q04DX003 (ip), vehicle: saline with Tween-80
[6] = endpoint: mean survival time, dose: 100.0 mg/kg/injection, schedule: Q01DX001 (ip), vehicle: saline with Tween-80
[7] = endpoint: mean survival time, dose: 200.0 mg/kg/injection, schedule: Q01DX001 (ip), vehicle: saline with Tween-80

## CC(=O)c1cc(C)[nH]c1C
endpoint: mean survival time, dose: 50.0 mg/kg/injection, schedule: Q01DX009 (ip), vehicle: saline with Tween-80
  T/C: 101 % of control
[1]
  T/C: 100 % of control
[2]
  T/C: 102 % of control
[3]
  T/C: 103 % of control
[4]
  T/C: 96 % of control
endpoint: median survival time, dose: 100.0 mg/kg/injection, schedule: Q01DX001 (ip), vehicle: saline with Tween-80
  T/C: 100 % of control
endpoint: median survival time, dose: 200.0 mg/kg/injection, schedule: Q01DX001 (ip), vehicle: saline with Tween-80
  T/C: 100 % of control

## C[N+]1(C)CCS(=O)(=O)CC1
[2]
  T/C: 94 % of control
[4]
  T/C: 95 % of control
[5]
  T/C: 86 % of control

## COc1ccc2c(c1OC)C1C3CC=CC3C2C2=[N+]1CCc1cc3c(cc12)OCO3 (stereo not given)
endpoint: mean survival time, dose: 12.5 mg/kg/injection, schedule: Q04DX003 (ip), vehicle: saline
  T/C: 97 % of control
endpoint: mean survival time, dose: 25.0 mg/kg/injection, schedule: Q04DX003 (ip), vehicle: saline
  T/C: 104 % of control
endpoint: mean survival time, dose: 100.0 mg/kg/injection, schedule: Q04DX003 (ip), vehicle: saline
  T/C: 97 % of control

## COC1=C(Br)[C@H](O)[C@](O)(CC#N)C=C1Br
endpoint: mean survival time, dose: 6.25 mg/kg/injection, schedule: Q01DX009 (ip), vehicle: saline
  T/C: 113 % of control
endpoint: mean survival time, dose: 12.5 mg/kg/injection, schedule: Q01DX009 (ip), vehicle: saline
  T/C: 111 % of control
endpoint: mean survival time, dose: 17.5 mg/kg/injection, schedule: Q01DX009 (ip), vehicle: Klucel (hydroxypropylcellulose) (HPC)
  T/C: 98 % of control
endpoint: mean survival time, dose: 25.0 mg/kg/injection, schedule: Q01DX009 (ip), vehicle: saline
  T/C: 117 % of control
endpoint: mean survival time, dose: 35.0 mg/kg/injection, schedule: Q01DX009 (ip), vehicle: Klucel (hydroxypropylcellulose) (HPC)
  T/C: 100 % of control
endpoint: mean survival time, dose: 70.0 mg/kg/injection, schedule: Q01DX009 (ip), vehicle: Klucel (hydroxypropylcellulose) (HPC)
  T/C: 102 % of control

## Oc1ccc2ccccc2c1Cl
[2]
  T/C: 104 % of control
[4]
  T/C: 112 % of control
[5]
  T/C: 108 % of control

## NC1CCCCC1N.O=C([O-])c1ccc(N=Nc2cccc([N+](=O)[O-])c2)cc1O.O=C([O-])c1ccc(N=Nc2cccc([N+](=O)[O-])c2)cc1O.[Pt+4]
endpoint: median survival time, dose: 3.12 mg/kg/injection, schedule: Q04DX003 (ip), vehicle: saline with Tween-80
  T/C: 150 % of control and 301 % of control
endpoint: median survival time, dose: 6.25 mg/kg/injection, schedule: Q04DX003 (ip), vehicle: saline with Tween-80
  T/C: 190 % of control and 247 % of control
endpoint: median survival time, dose: 12.5 mg/kg/injection, schedule: Q04DX003 (ip), vehicle: saline with Tween-80
  T/C: 361 % of control and 375 % of control
endpoint: median survival time, dose: 50.0 mg/kg/injection, schedule: Q04DX003 (ip), vehicle: saline with Tween-80
  T/C: 89 % of control

## Cn1c(=O)[nH]c2c(nc(-c3ccc(Cl)cc3)n2C)c1=O
endpoint: mean survival time, dose: 12.5 mg/kg/injection, schedule: Q01DX005 (ip), vehicle: other
  T/C: 91 % of control
endpoint: mean survival time, dose: 25.0 mg/kg/injection, schedule: Q01DX005 (ip), vehicle: other
  T/C: 100 % of control
endpoint: mean survival time, dose: 50.0 mg/kg/injection, schedule: Q01DX005 (ip), vehicle: other
  T/C: 95 % of control
endpoint: mean survival time, dose: 100.0 mg/kg/injection, schedule: Q01DX005 (ip), vehicle: other
  T/C: 95 % of control
endpoint: mean survival time, dose: 200.0 mg/kg/injection, schedule: Q01DX005 (ip), vehicle: other
  T/C: 100 % of control

## O=C(O)C1C2C=CC3(CN(CCc4ccccc4)C(=O)C13)O2 (stereo not given)
endpoint: mean survival time, dose: 100.0 mg/kg/injection, schedule: Q04DX002 (ip), vehicle: saline with Tween-80
  T/C: 95 % of control
endpoint: mean survival time, dose: 200.0 mg/kg/injection, schedule: Q04DX002 (ip), vehicle: saline with Tween-80
  T/C: 95 % of control
endpoint: mean survival time, dose: 400.0 mg/kg/injection, schedule: Q04DX002 (ip), vehicle: saline with Tween-80
  T/C: 103 % of control

## O=C(O)CN(CC(=O)O)C1CCCCC1N(CC(=O)O)CC(=O)O.[Cl][Pt+2][Cl] (stereo not given)
endpoint: median survival time, dose: 10.0 mg/kg/injection, schedule: Q04DX003 (ip), vehicle: saline
  T/C: 96 % of control
endpoint: median survival time, dose: 20.0 mg/kg/injection, schedule: Q04DX003 (ip), vehicle: saline
  T/C: 106 % of control
endpoint: median survival time, dose: 40.0 mg/kg/injection, schedule: Q04DX003 (ip), vehicle: saline
  T/C: 103 % of control and 104 % of control
endpoint: median survival time, dose: 80.0 mg/kg/injection, schedule: Q04DX003 (ip), vehicle: saline
  T/C: 106 % of control and 109 % of control

## O=S(=O)(/N=C1\C=CC=C\C1=N/S(=O)(=O)c1ccccc1)c1ccccc1
[1]
  T/C: 95 % of control
[3]
  T/C: 92 % of control
endpoint: mean survival time, dose: 400.0 mg/kg/injection, schedule: Q01DX009 (ip), vehicle: saline with Tween-80
  T/C: 98 % of control

## CC(=O)OCc1ccc(Cl)cc1
[2]
  T/C: 94 % of control
[4]
  T/C: 96 % of control
[5]
  T/C: 96 % of control

## CSC1SCC2C(=O)N(C)C(C(C)C)C(=O)OCC(NC(=O)c3cnc4ccccc4n3)C(=O)NC(C)C(=O)N(C)C1C(=O)N(C)C(C(C)C)C(=O)OCC(NC(=O)c1cnc3ccccc3n1)C(=O)NC(C)C(=O)N2C (stereo not given)
endpoint: mean survival time, dose: 4.0 micrograms/kg/injection, schedule: Q01DX009 (ip), vehicle: saline
  T/C: 105 % of control
endpoint: mean survival time, dose: 8.0 micrograms/kg/injection, schedule: Q01DX009 (ip), vehicle: saline
  T/C: 107 % of control
endpoint: mean survival time, dose: 15.0 micrograms/kg/injection, schedule: Q01DX009 (ip), vehicle: saline
  T/C: 102 % of control
endpoint: mean survival time, dose: 16.0 micrograms/kg/injection, schedule: Q01DX009 (ip), vehicle: saline
  T/C: 111 % of control
endpoint: mean survival time, dose: 30.0 micrograms/kg/injection, schedule: Q01DX009 (ip), vehicle: saline
  T/C: 118 % of control
endpoint: mean survival time, dose: 32.0 micrograms/kg/injection, schedule: Q01DX009 (ip), vehicle: saline
  T/C: 92 % of control
endpoint: mean survival time, dose: 60.0 micrograms/kg/injection, schedule: Q01DX009 (ip), vehicle: saline
  T/C: 108 % of control
endpoint: mean survival time, dose: 120.0 micrograms/kg/injection, schedule: Q01DX009 (ip), vehicle: saline
  T/C: 86 % of control
endpoint: mean survival time, dose: 192.0 micrograms/kg/injection, schedule: Q01DX009 (ip), vehicle: saline
  T/C: 114 % of control
endpoint: median survival time, dose: 67.0 micrograms/kg/injection, schedule: Q01DX005 (ip), vehicle: saline
  T/C: 122 % of control
endpoint: median survival time, dose: 150.0 micrograms/kg/injection, schedule: Q01DX005 (ip), vehicle: saline
  T/C: 120 % of control and 123 % of control
endpoint: median survival time, dose: 200.0 micrograms/kg/injection, schedule: Q01DX005 (ip), vehicle: saline
  T/C: 106 % of control

## CCC(C)C(=O)c1ccccc1 (stereo not given)
endpoint: mean survival time, dose: 50.0 mg/kg/injection, schedule: Q01DX001 (ip), vehicle: saline with Tween-80
  T/C: 100 % of control
[6]
  T/C: 95 % of control
[7]
  T/C: 100 % of control

## C=CCOc1c(C(=O)OCC)cnc2c1cnn2CC
endpoint: mean survival time, dose: 100.0 mg/kg/injection, schedule: Q04DX003 (ip), vehicle: Klucel (hydroxypropylcellulose) (HPC)
  T/C: 108 % of control
endpoint: mean survival time, dose: 200.0 mg/kg/injection, schedule: Q04DX003 (ip), vehicle: Klucel (hydroxypropylcellulose) (HPC)
  T/C: 108 % of control
endpoint: mean survival time, dose: 400.0 mg/kg/injection, schedule: Q04DX003 (ip), vehicle: Klucel (hydroxypropylcellulose) (HPC)
  T/C: 101 % of control

## Nc1nc2c(ncn2-c2ccc(OCCNC(=O)Nc3ccc(S(=O)(=O)F)cc3)cc2)c(=O)[nH]1
[6]
  T/C: 95 % of control
[7]
  T/C: 94 % of control
endpoint: mean survival time, dose: 400.0 mg/kg/injection, schedule: Q01DX001 (ip), vehicle: saline with Tween-80
  T/C: 94 % of control

## C[N+](C)(Cc1ccccc1)C1c2ccccc2-c2ccc(Cl)cc21 (stereo not given)
endpoint: mean survival time, dose: 50.0 mg/kg/injection, schedule: Q04DX002 (ip), vehicle: saline with Tween-80
  T/C: 103 % of control

## O=C1C(O)=C(c2ccccc2C(=O)O)C(=O)C(O)=C1c1ccccc1C(=O)O
[1]
  T/C: 92 % of control

## CNC=O
endpoint: mean survival time, dose: 100.0 mg/kg/injection, schedule: Q01DX009 (ip), vehicle: saline
  T/C: 103 % of control and 111 % of control
endpoint: mean survival time, dose: 200.0 mg/kg/injection, schedule: Q01DX009 (ip), vehicle: saline
  T/C: 112 % of control
endpoint: mean survival time, dose: 800.0 mg/kg/injection, schedule: Q01DX009 (ip), vehicle: saline
  T/C: 164 % of control

## COc1ccc(/C=C(/C)C(=O)c2ccccc2)cc1
endpoint: mean survival time, dose: 100.0 mg/kg/injection, schedule: Q01DX009 (ip), vehicle: Klucel (hydroxypropylcellulose) (HPC)
  T/C: 97 % of control
endpoint: mean survival time, dose: 200.0 mg/kg/injection, schedule: Q01DX009 (ip), vehicle: Klucel (hydroxypropylcellulose) (HPC)
  T/C: 97 % of control
endpoint: mean survival time, dose: 400.0 mg/kg/injection, schedule: Q01DX009 (ip), vehicle: Klucel (hydroxypropylcellulose) (HPC)
  T/C: 91 % of control

## O=C(Nc1ccccc1F)Nc1cccc2ccccc12
[2]
  T/C: 98 % of control
[4]
  T/C: 101 % of control
[5]
  T/C: 96 % of control

## O=C(NC(Cc1ccc(I)cc1)C(=O)O)c1ccc(Br)cc1 (stereo not given)
endpoint: median survival time, dose: 25.0 mg/kg/injection, schedule: Q01DX009 (ip), vehicle: sodium bicarbonate
  T/C: 98 % of control
endpoint: median survival time, dose: 50.0 mg/kg/injection, schedule: Q01DX009 (ip), vehicle: sodium bicarbonate
  T/C: 101 % of control
endpoint: median survival time, dose: 100.0 mg/kg/injection, schedule: Q01DX009 (ip), vehicle: sodium bicarbonate
  T/C: 101 % of control
endpoint: median survival time, dose: 200.0 mg/kg/injection, schedule: Q01DX009 (ip), vehicle: sodium bicarbonate
  T/C: 96 % of control
